Test results reported in patent US7968093B2, “Fully human antibodies directed against the human insulin-like growth factor-1 receptor” (ImClone LLC, priority 2003, dated 2011).

Experiments:
IGF-IR on MCF7 cells [1] = biological target: T1, IGF-IR on MCF7 cells (Homo sapiens, UniProt P08069); experiment: IGF-IR surface receptor density by FACS; format: cell-based; settings: MCF7 cells incubated at 4° C.
T1 construct: endogenous in cells
Experimental: IGF-IR surface receptor density was determined by FACS. […] Cells were washed in ice-cold PBS/5% BSA twice, and 1×10^6 cells were aliquoted to staining tubes and placed on ice. An IGF-IR alpha-polypeptide specific, non-blocking mouse monoclonal antibody (Ab-1, NeoMarkers, Fremont, Calif.), was then incubated with cells at 4° C. for 2 h. After PBS/BSA washes, cells were incubated with anti-mouse IgG phycoerythrin-conjugated secondary antibody (PharMingen, BD Biosciences) for 1 h on ice. After PBS/BSA wash, cells were analyzed by fluorescence-activated cell-sorting assay using a FACSvantage SE flow cytometer (BD Bioscience).

mouse IGF-IR [2] = biological target: T2, mouse IGF-IR (Mus musculus, UniProt Q60751); experiment: FACs binding analysis to mouse cell lines; format: cell-based; settings: mouse tumor cell line Lewis Lung carcinoma
T2 construct: endogenous in cells; host or cells: Lewis Lung carcinoma (mouse); R- mouse embryo fibroblasts (IGF-IR negative control)
T2 sequence (Q60751 31-737 limits assumed): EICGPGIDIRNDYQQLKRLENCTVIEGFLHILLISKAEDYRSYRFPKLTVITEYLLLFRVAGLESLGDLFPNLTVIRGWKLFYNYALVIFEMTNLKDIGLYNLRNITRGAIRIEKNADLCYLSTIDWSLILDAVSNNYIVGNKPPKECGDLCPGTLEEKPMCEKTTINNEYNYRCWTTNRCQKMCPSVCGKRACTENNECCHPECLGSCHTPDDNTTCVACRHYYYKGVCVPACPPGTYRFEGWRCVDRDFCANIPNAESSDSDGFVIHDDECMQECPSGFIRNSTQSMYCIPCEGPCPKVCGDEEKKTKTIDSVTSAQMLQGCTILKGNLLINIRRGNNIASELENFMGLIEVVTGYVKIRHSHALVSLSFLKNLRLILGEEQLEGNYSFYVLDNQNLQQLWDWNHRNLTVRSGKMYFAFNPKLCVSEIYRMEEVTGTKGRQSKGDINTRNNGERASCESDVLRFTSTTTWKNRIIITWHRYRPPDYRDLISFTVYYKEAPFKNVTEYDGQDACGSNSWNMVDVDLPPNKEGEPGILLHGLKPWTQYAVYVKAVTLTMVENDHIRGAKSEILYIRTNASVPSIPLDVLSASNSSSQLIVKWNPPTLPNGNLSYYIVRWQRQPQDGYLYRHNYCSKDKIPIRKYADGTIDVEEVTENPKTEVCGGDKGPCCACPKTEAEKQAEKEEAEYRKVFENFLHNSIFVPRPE
T2 sequence (Q60751 742-1373 limits assumed): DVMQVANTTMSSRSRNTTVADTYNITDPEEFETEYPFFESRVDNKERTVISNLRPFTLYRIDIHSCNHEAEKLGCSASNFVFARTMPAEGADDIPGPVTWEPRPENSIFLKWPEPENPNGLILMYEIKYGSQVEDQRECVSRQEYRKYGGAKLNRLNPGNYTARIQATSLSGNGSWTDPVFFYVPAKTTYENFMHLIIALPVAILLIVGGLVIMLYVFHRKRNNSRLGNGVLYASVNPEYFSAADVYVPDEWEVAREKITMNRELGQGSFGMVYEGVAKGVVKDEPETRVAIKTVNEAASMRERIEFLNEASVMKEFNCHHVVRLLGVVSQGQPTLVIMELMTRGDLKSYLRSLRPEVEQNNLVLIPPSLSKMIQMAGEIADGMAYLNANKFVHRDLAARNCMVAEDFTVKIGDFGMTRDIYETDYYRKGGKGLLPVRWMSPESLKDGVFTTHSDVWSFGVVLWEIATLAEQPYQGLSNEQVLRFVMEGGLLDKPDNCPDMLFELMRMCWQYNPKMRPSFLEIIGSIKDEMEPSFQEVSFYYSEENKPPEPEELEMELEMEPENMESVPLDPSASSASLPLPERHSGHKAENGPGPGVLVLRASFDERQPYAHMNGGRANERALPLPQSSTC

mouse IGF-IR [3] = experiment: FACs binding analysis to mouse cell lines; format: cell-based; settings: IGF-IR negative mouse embryo fibroblasts (R- cells)
insulin receptor (IR) = biological target: T3, insulin receptor (IR) (Homo sapiens, UniProt P06213); experiment: Blocking of radiolabeled insulin binding to ZR-75I cells; settings: ZR-75I breast cancer cells; antibody up to 200 nM
T3 construct: endogenous in cells; host or cells: ZR-75I human breast cancer cells

[4] = tested on: BxPC-3 human pancreatic carcinoma cells; experiment: BxPC-3 xenograft, A12 with CPT-11 or gemcitabine; format: in vivo, athymic nu/nu mice
Experimental: Athymic nu/nu mice were injected subcutaneously with 2×10^6 BxPC-3 human pancreatic carcinoma cells mixed 1:1 with Matrigel. […] All treatments were administered by intraperitoneal injection. Tumor measurements were recorded twice weekly using the formula Volume=(π/6)l×w^2.
At day 18 three animals per group were sacrificed and the tumors resected for midpoint histological evaluation. Treatment and tumor measurements continued on the remaining animals until day 44 with the exception of the TBS group. […] At termination of the study final tumor measurements were recorded, animals sacrificed, and four per group had tumors resected for endpoint histological evaluation.

IGF-IR on MCF7 cells [5] = biological target: T1, IGF-IR on MCF7 cells; experiment: Internalization of 125I-A12 after binding to IGF-IR; format: cell-based; settings: 37° C., 30-180 minutes
Experimental: Antibody A12 was radio-iodinated with ^125iodine using IODO-beads (Pierce) according to manufacturer's instructions. MCF7 human breast cancer cells were plated into 6-well plates and cultured overnight to 50% confluence. One microgram of ^125I-A12 was added to each well and incubated at 37° C. or kept on ice at 4° C. Plates were incubated for 30 minutes, 90 minutes, or 180 minutes and each time point performed in triplicate. The culture at 4° C. was held for 180 minutes. At each time point, wells were washed 1× w/PBS, then stripped for 5 minutes with 100 mM glycine-HCl, 2M urea, pH 2.5. The stripped material, representing membrane bound antibody was kept on ice for counting. Wells were then washed 3 times with PBS and cells solubilized with 1N NaOH/1% TritonX100. The solubilized fraction represented the internalized antibody. Stripped and solubilized fractions were then read on a gamma counter and plotted with standard deviation.

MCF7 human breast cancer = experiment: MCF7 xenograft, A12 monotherapy; format: in vivo, nude mice
Experimental: In order to assess its activity on MCF7 tumor growth in vivo, a mouse xenograft tumor model was utilized. MCF7 cells were originally isolated from an estrogen-dependent human tumor and require exogenously added estrogen for maintenance and growth in vivo. Nude mice were implanted with biodegradable estrogen pellets (0.72 mg 17-β-estradiol/pellet, 60 day release). In addition, at the time of subcutaneous tumor cell injection, the mice were also injected in the right flank subcutaneously with 0.5 mg of estradiol in a 50 μl suspension of sesame seed oil. Tumors were allowed to establish a size of approximately 150 mm^3 before antibody treatment was initiated. Antibody was injected at 1 mg, 100 μg, and 10 μg doses every three days and continued for the duration of the experiment. At 29 days, treatment of animals with 1 mg of A12 effected an 89% reduction in tumor growth (FIG. 25). Minimal growth was apparent for the established tumors in this treatment group.

IGF-IR [6] = biological target: T4, IGF-IR (Homo sapiens, UniProt P08069); experiment: IGF-I mediated IGF-IR auto-phosphorylation, western blot; format: cell-based; design: endogenous in cells; HT-29; BxPC-3; HEL
[7] = tested on: HT-29 human colon carcinoma; experiment: HT-29 xenograft, A12 with CPT-11 or paclitaxel; format: in vivo, nu/nu mice
Experimental: […] nu/nu mice were injected subcutaneously with HT-29 human colon carcinoma cell suspension, at 5×10^6 cells in 0.4 ml mixed 1:1 with Matrigel. […] All treatments were administered by intraperitoneal injection.
Treatment continued for six weeks and tumor measurements were recorded twice weekly using the formula Volume=(π/6)l×w^2. At day 21 four animals per group were sacrificed and the tumors resected for histological evaluation. Treatment and tumor measurements continued on the remaining animals until day 40. At that time final tumor measurements were recorded, animals sacrificed, and four per group had tumor resected for endpoint histological evaluation.

IGF-IR [8] = biological target: T4, IGF-IR; experiment: Blocking of 125I-IGF-I binding to immobilized soluble IGF-IR; design: recombinant extracellular portion of human IGF-IR was used to screen
Experimental: Forty 40 pM of ^125I-IGF-I was then added and the plates incubated an additional 90 minutes. […] Affinity was determined by BIAcore analysis according to manufacturer's specifications (Pharmacia BIACORE 3000). Soluble IGF-IR was immobilized on the sensor chips and antibody binding kinetics determined. […] The activity of A12 remained the same, irrespective of whether the light chain was engineered with a human lambda or kappa class constant region. Antibody A12 engineered with a lambda class light chain was utilized in all subsequent procedures.

A12: fully human IgG1 anti-IGF-IR antibody, lambda light chain; VH SEQ ID NO:2, VL SEQ ID NO:10; affinity matured from 2F8
shift of surface IGF-IR fluorescence intensity (IGF-IR on MCF7 cells [1]): shift was not seen
FACs shift (mouse IGF-IR [2]): partially shift
FACs binding (mouse IGF-IR [3]): failed to bind
blocking of insulin binding (insulin receptor (IR)): neither 2F8 nor the high affinity A12 antibody blocked insulin binding
animals with partial tumor regressions ([4]; after five weeks of treatment): 2 of eight
Regressions (individual tumor volumes < day 1 of treatment) ([4]; day 19, animals regressing/animals in group): 2/12
T/C % ([4]; day 19, ip, A12 1 mg 3 times per week, irinotecan 1 mg or gemcitabine 2.5 mg every 7 days): 57%
Regressions (individual tumor volumes < day 1 of treatment) ([4]; day 23): 2/9
T/C % ([4]; day 23, same regimens): 49%
Regressions (individual tumor volumes < day 1 of treatment) ([4]; day 26): 2/9
T/C % ([4]; day 26, same regimens): 40%
Regressions (individual tumor volumes < day 1 of treatment) ([4]; day 30): 2/8
T/C % ([4]; day 30, same regimens): 40%
Regressions (individual tumor volumes < day 1 of treatment) ([4]; day 32): 2/8
T/C % ([4]; day 32, same regimens): 39%
Regressions (individual tumor volumes < day 1 of treatment) ([4]; day 37): 2/8
Regressions (individual tumor volumes < day 1 of treatment) ([4]; day 41): 2/8
Regressions (individual tumor volumes < day 1 of treatment) ([4]; day 44): 2/8
internalization of labeled antibody (IGF-IR on MCF7 cells [5]): rapidly internalized
reduction in tumor growth (MCF7 human breast cancer; 1 mg every three days, at 29 days): 89%
tumor regression (MCF7 human breast cancer; antibody alone 1 mg/dose, continued to termination (50 days)): tumor regression was observed
inhibition of IGF-IR auto-phosphorylation (IGF-IR [6]; BxPC-3 pancreatic cancer cells): inhibited auto-phosphorylation of IGF-IR
inhibition of IGF-IR auto-phosphorylation (IGF-IR [6]; HT-29 colorectal cancer cells): inhibited auto-phosphorylation of IGF-IR
agonist activity: receptor phosphorylation by antibody alone (IGF-IR [6]; MCF7 cells, serum deprived, no ligand): did not induce receptor phosphorylation
block of IGF-IR phosphorylation (IGF-IR [6]; MCF7 cells, 10 nM IGF-I): nearly completely blocked phosphorylation
T/C % ([7]; day 12, ip, A12 1 mg 3 times per week, irinotecan 2 mg or paclitaxel 121 μg every 7 days): 69%
T/C % ([7]; day 15, same regimens): 62%
T/C % ([7]; day 19, same regimens): 64%
T/C % ([7]; day 22, same regimens): 58%
T/C % ([7]; day 26, same regimens): 62%
T/C % ([7]; day 29, same regimens): 61%
T/C % ([7]; day 33, same regimens): 58%
T/C % ([7]; day 36, same regimens): 53%
T/C % ([7]; day 40, same regimens): 54%
inhibition of growth of HT-29 xenografts compared to TBS control ([7]; single agent): significantly (P<0.02) inhibited
inhibition of radiolabeled IGF-I binding compared with cold ligand (IGF-IR [8]; FIG. 15): to a greater extent than competition with cold ligand
increase in blocking activity of ligand for immobilized receptor, A12 versus 2F8 (IGF-IR [8]; full IgG): at least a three-fold increase
